Experimental data published in the kinase profiling compilation of Christmann-Franck et al. (2016).
Several values for one entry are separate records, joined by “and”; a condition that tells them apart may be missing. Equal entries are not always repeated.

How the values were obtained:
Experiment in all cases: KINOMEscan competition binding
Conditions in all cases: compound 1.0 µM
PRKCI (human) = PRKCI (human) (UniProt P41743)
[1] = biological target: TYK2 JH1 catalytic (human) (UniProt P29597)
MET (human) = MET (human) (UniProt P08581)
MET (human), sequence (P08581 whole entry, looked up): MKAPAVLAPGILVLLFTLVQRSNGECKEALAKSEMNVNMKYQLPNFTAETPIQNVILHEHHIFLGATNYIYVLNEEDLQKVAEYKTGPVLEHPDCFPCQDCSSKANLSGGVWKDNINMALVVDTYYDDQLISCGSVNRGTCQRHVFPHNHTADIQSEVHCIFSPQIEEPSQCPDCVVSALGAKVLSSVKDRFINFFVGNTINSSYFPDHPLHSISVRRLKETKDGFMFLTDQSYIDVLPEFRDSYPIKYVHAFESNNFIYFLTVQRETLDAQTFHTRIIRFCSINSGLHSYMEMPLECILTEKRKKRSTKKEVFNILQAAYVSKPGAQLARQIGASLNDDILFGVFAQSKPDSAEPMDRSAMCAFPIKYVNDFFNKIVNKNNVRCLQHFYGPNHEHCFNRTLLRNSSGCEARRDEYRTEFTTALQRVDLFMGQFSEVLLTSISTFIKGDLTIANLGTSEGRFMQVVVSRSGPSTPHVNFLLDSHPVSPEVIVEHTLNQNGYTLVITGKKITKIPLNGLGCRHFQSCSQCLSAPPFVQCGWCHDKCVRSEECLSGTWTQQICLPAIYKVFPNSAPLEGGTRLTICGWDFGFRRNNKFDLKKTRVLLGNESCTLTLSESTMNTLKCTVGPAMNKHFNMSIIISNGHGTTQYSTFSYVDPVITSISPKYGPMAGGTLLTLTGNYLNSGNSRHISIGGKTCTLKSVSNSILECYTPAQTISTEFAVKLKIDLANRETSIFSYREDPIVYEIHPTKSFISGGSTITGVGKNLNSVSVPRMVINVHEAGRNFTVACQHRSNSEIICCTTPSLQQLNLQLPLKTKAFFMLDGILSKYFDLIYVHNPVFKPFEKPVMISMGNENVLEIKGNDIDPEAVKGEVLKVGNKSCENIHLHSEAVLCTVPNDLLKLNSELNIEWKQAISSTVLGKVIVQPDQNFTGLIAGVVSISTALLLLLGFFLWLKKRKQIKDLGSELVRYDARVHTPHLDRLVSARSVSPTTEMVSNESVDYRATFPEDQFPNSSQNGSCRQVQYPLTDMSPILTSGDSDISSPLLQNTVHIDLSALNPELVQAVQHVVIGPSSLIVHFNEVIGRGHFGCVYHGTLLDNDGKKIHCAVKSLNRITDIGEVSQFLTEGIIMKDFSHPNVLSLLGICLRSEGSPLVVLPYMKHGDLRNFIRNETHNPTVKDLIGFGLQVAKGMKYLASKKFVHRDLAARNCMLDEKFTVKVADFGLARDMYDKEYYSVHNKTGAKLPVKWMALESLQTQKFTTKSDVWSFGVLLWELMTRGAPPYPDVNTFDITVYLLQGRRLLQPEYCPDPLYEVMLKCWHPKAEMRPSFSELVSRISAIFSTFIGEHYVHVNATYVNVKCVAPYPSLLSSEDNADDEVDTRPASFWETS

NTRK1 (human) = NTRK1 (human) (UniProt P04629)
ICK (human) = ICK (human) (UniProt Q9UPZ9)
SRPK2 (human) = SRPK2 (human) (UniProt P78362)
FGFR2 (human) = FGFR2 (human) (UniProt P21802)
[2] = tested on: PIK3CA (human), P42336 [C420R]
CDC42BPG (human) = CDC42BPG (human) (UniProt Q6DT37)
CDC42BPG (human), sequence (Q6DT37 whole entry, looked up): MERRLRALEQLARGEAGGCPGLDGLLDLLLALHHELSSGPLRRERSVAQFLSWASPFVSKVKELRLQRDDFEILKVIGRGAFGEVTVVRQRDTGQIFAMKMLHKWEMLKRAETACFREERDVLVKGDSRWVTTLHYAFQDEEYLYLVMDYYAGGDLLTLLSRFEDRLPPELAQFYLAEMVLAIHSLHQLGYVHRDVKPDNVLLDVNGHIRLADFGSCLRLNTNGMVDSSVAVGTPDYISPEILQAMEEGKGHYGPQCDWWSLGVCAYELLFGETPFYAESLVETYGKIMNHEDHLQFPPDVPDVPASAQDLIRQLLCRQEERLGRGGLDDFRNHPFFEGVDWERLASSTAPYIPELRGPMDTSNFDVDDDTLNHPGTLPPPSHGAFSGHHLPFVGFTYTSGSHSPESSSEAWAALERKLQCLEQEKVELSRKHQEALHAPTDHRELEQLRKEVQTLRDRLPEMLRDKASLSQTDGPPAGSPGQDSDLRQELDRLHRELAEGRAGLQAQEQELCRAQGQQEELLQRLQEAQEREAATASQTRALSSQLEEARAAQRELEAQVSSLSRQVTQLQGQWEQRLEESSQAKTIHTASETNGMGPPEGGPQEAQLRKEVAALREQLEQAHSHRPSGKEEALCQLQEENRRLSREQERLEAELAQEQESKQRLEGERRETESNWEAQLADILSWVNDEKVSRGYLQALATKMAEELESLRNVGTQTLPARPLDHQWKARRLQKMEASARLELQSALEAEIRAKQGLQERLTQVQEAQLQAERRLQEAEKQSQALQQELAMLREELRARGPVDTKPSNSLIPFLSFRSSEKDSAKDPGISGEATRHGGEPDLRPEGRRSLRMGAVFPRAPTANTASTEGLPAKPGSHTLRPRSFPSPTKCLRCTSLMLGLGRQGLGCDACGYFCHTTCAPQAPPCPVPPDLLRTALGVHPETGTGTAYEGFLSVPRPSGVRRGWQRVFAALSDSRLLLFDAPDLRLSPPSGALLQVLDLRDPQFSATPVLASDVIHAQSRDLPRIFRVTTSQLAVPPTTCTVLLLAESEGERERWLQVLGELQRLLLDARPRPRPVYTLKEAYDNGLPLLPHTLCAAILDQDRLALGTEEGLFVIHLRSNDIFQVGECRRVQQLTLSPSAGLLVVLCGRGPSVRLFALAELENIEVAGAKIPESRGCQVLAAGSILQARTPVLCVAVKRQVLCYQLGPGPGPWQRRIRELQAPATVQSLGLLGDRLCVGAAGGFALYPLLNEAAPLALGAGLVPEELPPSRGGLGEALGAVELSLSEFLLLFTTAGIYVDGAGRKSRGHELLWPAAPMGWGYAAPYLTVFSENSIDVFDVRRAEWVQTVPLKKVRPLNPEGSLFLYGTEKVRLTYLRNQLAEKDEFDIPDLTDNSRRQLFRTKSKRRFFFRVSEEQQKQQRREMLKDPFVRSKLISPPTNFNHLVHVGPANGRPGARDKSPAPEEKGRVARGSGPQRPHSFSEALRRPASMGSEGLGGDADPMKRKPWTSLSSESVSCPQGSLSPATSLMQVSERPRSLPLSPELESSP

RPS6KA5 KD2 (human) = RPS6KA5 KD2 (human) (UniProt O75582)
STK36 (human) = STK36 (human) (UniProt Q9NRP7)
[3] = tested on: EIF2AK4 KD2 (human), Q9P2K8 [S808G]
RPS6KA6 KD1 (human) = RPS6KA6 KD1 (human) (UniProt Q9UK32)
STK38 (human) = STK38 (human) (UniProt Q15208)
STK38 (human), sequence (Q15208 whole entry, looked up): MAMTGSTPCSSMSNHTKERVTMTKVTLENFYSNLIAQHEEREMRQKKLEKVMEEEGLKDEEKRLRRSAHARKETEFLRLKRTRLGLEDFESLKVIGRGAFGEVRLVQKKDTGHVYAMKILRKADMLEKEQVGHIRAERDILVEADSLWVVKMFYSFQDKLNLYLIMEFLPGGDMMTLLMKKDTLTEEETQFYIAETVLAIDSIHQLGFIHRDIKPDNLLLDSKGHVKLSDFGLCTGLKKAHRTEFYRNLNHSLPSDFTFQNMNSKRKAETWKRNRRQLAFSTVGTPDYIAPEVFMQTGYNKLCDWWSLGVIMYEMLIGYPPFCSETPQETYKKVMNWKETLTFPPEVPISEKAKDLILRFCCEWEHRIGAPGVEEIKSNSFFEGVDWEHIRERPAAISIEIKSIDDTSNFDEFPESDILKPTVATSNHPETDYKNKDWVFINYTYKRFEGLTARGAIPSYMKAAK

CDK13 (human) = CDK13 (human) (UniProt Q14004)
MAP3K7 (human) = MAP3K7 (human) (UniProt O43318)
MYO3B (human) = MYO3B (human) (UniProt Q8WXR4)
NEK9 (human) = NEK9 (human) (UniProt Q8TD19)
DAPK3 (human) = DAPK3 (human) (UniProt O43293)
EPHB6 (human) = EPHB6 (human) (UniProt O15197)
TNK2 (human) = TNK2 (human) (UniProt Q07912)
NTRK2 (human) = NTRK2 (human) (UniProt Q16620)
MAST1 (human) = MAST1 (human) (UniProt Q9Y2H9)
NTRK3 (human) = NTRK3 (human) (UniProt Q16288)
FLT3 (human) = FLT3 (human) (UniProt P36888)
PRKG1 (human) = PRKG1 (human) (UniProt Q13976)
CDK3 (human) = CDK3 (human) (UniProt Q00526)
WNK3 (human) = WNK3 (human) (UniProt Q9BYP7)
[4] = tested on: FLT3 (human), P36888 [D835Y]
SGK1 (human) = SGK1 (human) (UniProt O00141)
MAP4K1 (human) = MAP4K1 (human) (UniProt Q92918)
MAP4K1 (human), sequence (Q92918 whole entry, looked up): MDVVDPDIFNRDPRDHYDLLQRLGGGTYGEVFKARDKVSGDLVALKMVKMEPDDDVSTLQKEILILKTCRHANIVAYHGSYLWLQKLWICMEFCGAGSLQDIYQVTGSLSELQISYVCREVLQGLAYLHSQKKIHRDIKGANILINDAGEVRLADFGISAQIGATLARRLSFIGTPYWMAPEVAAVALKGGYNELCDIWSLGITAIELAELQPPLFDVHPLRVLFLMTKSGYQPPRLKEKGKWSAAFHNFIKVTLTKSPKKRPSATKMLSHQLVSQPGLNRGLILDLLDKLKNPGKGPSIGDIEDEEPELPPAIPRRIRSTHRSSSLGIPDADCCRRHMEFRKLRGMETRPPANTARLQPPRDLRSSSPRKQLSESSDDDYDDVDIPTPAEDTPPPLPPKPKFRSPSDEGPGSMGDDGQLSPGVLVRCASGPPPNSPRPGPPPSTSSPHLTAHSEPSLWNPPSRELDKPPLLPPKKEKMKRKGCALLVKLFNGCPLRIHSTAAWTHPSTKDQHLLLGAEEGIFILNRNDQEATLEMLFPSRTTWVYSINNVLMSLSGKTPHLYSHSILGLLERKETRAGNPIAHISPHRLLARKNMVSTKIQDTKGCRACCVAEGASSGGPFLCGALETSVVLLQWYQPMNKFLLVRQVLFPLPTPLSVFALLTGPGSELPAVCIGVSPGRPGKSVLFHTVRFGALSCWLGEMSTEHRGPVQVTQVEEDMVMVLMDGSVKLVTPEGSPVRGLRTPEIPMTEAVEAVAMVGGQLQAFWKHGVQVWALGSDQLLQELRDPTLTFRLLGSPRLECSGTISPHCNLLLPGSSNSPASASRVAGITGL

FGFR4 (human) = FGFR4 (human) (UniProt P22455)
ACVR2A (human) = ACVR2A (human) (UniProt P27037)
PRKACA (human) = PRKACA (human) (UniProt P17612)
WNK1 (human) = WNK1 (human) (UniProt Q9H4A3)
STK24 (human) = STK24 (human) (UniProt Q9Y6E0)

PRKCI (human), sequence (P41743 whole entry, looked up): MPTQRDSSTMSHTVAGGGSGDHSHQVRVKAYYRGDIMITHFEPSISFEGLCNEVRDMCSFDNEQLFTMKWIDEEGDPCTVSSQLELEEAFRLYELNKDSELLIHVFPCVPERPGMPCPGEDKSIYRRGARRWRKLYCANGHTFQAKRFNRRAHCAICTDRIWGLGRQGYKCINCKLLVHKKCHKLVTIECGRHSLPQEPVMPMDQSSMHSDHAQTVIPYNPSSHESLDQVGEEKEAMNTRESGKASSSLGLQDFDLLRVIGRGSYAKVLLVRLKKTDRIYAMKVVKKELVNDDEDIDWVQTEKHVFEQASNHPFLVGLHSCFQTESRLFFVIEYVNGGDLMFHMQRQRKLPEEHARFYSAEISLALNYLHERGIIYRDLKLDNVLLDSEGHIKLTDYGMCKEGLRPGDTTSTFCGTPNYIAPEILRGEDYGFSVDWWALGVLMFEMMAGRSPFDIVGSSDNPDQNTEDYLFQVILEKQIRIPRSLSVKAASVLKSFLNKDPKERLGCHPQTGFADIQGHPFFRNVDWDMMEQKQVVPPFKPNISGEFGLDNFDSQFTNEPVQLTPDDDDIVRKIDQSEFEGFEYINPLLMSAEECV

SMILES: CNc1nc(Nc2ccc(C(=O)N3CCOCC3)cc2OC)ncc1Cl
- kinase still bound, per cent of control (PRKCI (human)): 100%
- kinase still bound, per cent of control [1]: 73%
- kinase still bound, per cent of control (MET (human)): 100%
- kinase still bound, per cent of control (NTRK1 (human)): 99%
- kinase still bound, per cent of control (ICK (human)): 100%
- kinase still bound, per cent of control (SRPK2 (human)): 84%
- kinase still bound, per cent of control (FGFR2 (human)): 100%
- kinase still bound, per cent of control [2]: 85%
- kinase still bound, per cent of control (CDC42BPG (human)): 100%
- kinase still bound, per cent of control (RPS6KA5 KD2 (human)): 54%
- kinase still bound, per cent of control (STK36 (human)): 100%
- kinase still bound, per cent of control [3]: 85%
- kinase still bound, per cent of control (RPS6KA6 KD1 (human)): 100%
- kinase still bound, per cent of control (STK38 (human)): 100%
- residual activity (CDK13 (human)): 89%
- kinase still bound, per cent of control (MAP3K7 (human)): 79%
- kinase still bound, per cent of control (MYO3B (human)): 100%
- kinase still bound, per cent of control (NEK9 (human)): 93%
- kinase still bound, per cent of control (DAPK3 (human)): 63%
- kinase still bound, per cent of control (EPHB6 (human)): 100%
- kinase still bound, per cent of control (TNK2 (human)): 78%
- kinase still bound, per cent of control (NTRK2 (human)): 93%
- kinase still bound, per cent of control (MAST1 (human)): 93%
- kinase still bound, per cent of control (NTRK3 (human)): 100%
- kinase still bound, per cent of control (FLT3 (human)): 49% and 65%
- kinase still bound, per cent of control (PRKG1 (human)): 82%
- residual activity (CDK3 (human)): 100%
- kinase still bound, per cent of control (WNK3 (human)): 93%
- kinase still bound, per cent of control [4]: 72%
- kinase still bound, per cent of control (SGK1 (human)): 82%
- kinase still bound, per cent of control (MAP4K1 (human)): 100%
- kinase still bound, per cent of control (FGFR4 (human)): 52%
- kinase still bound, per cent of control (ACVR2A (human)): 75%
- residual activity (PRKACA (human)): 100%
- kinase still bound, per cent of control (WNK1 (human)): 100%
- kinase still bound, per cent of control (STK24 (human)): 79%
